Data published in publication PMC10743905, “Design, Synthesis, and In Vitro and In Vivo Bioactivity Studies of Hydrazide–Hydrazones of 2,4-Dihydroxybenzoic Acid” (International Journal of Molecular Sciences, 2023).
≈ marks a conversion by molar mass, not a printed value.

Test system: Candida krusei ATCC 14243
Assay: Broth microdilution MIC/MFC
Type: cell-based
Conditions: Pichia kudriavzevii, ATCC14243, read-out: MIC
Description: (§1) In vitro antimicrobial activity assays - Methodology
(§2) The examined compounds 1 - 24 were screened in vitro for antibacterial and antifungal activities using the broth microdilution method according to procedure reported earlier by our research group and European Committee on Antimicrobial Susceptibility Testing (EUCAST) and Clinical and Laboratory Standards Institute (CLSI) guidelines against a panel of reference and clinical or saprophytic strains of microorganisms, in-cluding Gram-positive bacteria, Staphylococcus aureus ATCC 43300 (Methicillin Resistant S. aureus – MRSA), Staphylococcus aureus ATCC 29213 (Methicillin Susceptible S. aureus – MSSA), Staphylococcus epidermidis ATCC 12228, Enterococcus faecalis ATCC 29212, Micro-coccus luteus ATCC 10240, Bacillus subtilis ATCC 6633 and Bacillus cereus ATCC 10876), Gram-negative bacteria (Bordetella bronchiseptica ATCC 4617, Escherichia coli ATCC 25922, Klebsiella pneumoniae ATCC 13883, Proteus mirabilis ATCC 12453, Salmonella typhimurium ATCC 14028 and Pseudomonas aeruginosa ATCC 9027) and fungi belonging to yeasts (Can-dida albicans ATCC 10231, Candida albicans ATCC 2091, Candida parapsilosis ATCC 22019, Candida glabrata ATCC 90030 and Candida krusei ATCC 14243). The microorganisms be-longing to ATCC came from American Type Culture Collection, routinely used for the evaluation of antimicrobials. All the used microbial cultures were first subcultured on nu-trient agar or Sabouraud agar at 35°C for 18-24 h or 30°C for 24-48 h for bacteria and fungi, […]
(§3) The surface of Mueller-Hinton agar (for bacteria) and RPMI 1640 with MOPS (for fungi) were inoculated with the suspensions of bacterial or fungal species. Microbial suspensions were prepared in sterile saline with an optical density of McFarland standard scale 0.5.
(§4) Samples containing examined compounds were dissolved in dimethyl sulfoxide (DMSO).
(§5) Furthermore, bacterial and fungal suspensions were put onto Petri dishes with solid me-dia containing 2 mg/mL of the tested compounds followed incubation at 37°C for 24h and 30°C for 48h for bacteria and fungi, respectively. The inhibition of microbial growth was judged by comparison with a control culture prepared without any sample tested. Ciprof-loxacin, vancomycin, nitrofurantoin, cefuroxime, ampicillin or nystatin (Sigma) were used as a reference antibacterial or antifungal compounds, respectively.
(§6) Subsequently, the MIC (Minimal Inhibitory Concentration) of the compounds was ex-amined by the microdilution broth method, using their two-fold dilutions in Mueller- […]
(§7) Hinton broth or (for bacteria) and RPMI 1640 broth with MOPS (for fungi) prepared in 96-well polystyrene plates. Final concentrations of the compounds ranged from 1000 to 0.488 µg/ml. Microbial suspensions were prepared in 0.85% NaCl with an optical density of 0.5 McFarland standard. Next each bacterial or fungal suspension was added per each well containing broth and various concentrations of the examined compounds. After incuba-

MIC | Compound
> 1000 µg/mL | COc1ccc(/C=N/NC(=O)c2ccc(O)cc2O)c(Br)c1O [Compound 15, N-[(2-bromo-3-hydroxy-4-methoxyphenyl)methylidene]-2,4-dihydroxybenzohydrazide]

Test system: Candida albicans ATCC 2091
Assay: Broth microdilution MIC/MFC
Type: cell-based
Conditions: ATCC2091, read-out: MIC
Description: as §1, §2, §3, §4, §5, §6, §7

MIC | Compound
> 1000 µg/mL | COc1ccc(/C=N/NC(=O)c2ccc(O)cc2O)c(Br)c1O [Compound 15, N-[(2-bromo-3-hydroxy-4-methoxyphenyl)methylidene]-2,4-dihydroxybenzohydrazide]

Test system: Candida parapsilosis ATCC 22019
Assay: Broth microdilution MIC/MFC
Type: cell-based
Conditions: not given
Description: as §1, §2, §3, §4, §5, §6, §7

MFC/MIC | Compound
> 1 | COc1ccc(/C=N/NC(=O)c2ccc(O)cc2O)c(Br)c1O [Compound 15, N-[(2-bromo-3-hydroxy-4-methoxyphenyl)methylidene]-2,4-dihydroxybenzohydrazide]

Same assay, conditions: Lodderomyces parapsilosis, ATCC22019, read-out: MFC

Compound | MFC
COc1ccc(/C=N/NC(=O)c2ccc(O)cc2O)c(Br)c1O [Compound 15, N-[(2-bromo-3-hydroxy-4-methoxyphenyl)methylidene]-2,4-dihydroxybenzohydrazide] | > 1000 µg/mL

Same assay, conditions: Lodderomyces parapsilosis, ATCC22019, read-out: MIC

MIC | Compound
1000 µg/mL (≈ 2620 µM) | COc1ccc(/C=N/NC(=O)c2ccc(O)cc2O)c(Br)c1O [Compound 15, N-[(2-bromo-3-hydroxy-4-methoxyphenyl)methylidene]-2,4-dihydroxybenzohydrazide]

Test system: Candida albicans ATCC 10231
Assay: Broth microdilution MIC/MFC
Type: cell-based
Conditions: ATCC10231, read-out: MIC
Description: as §1, §2, §3, §4, §5, §6, §7

MIC | Compound
> 1000 µg/mL | COc1ccc(/C=N/NC(=O)c2ccc(O)cc2O)c(Br)c1O [Compound 15, N-[(2-bromo-3-hydroxy-4-methoxyphenyl)methylidene]-2,4-dihydroxybenzohydrazide]

Test system: Candida glabrata ATCC 90030
Assay: Broth microdilution MIC/MFC
Type: cell-based
Conditions: Nakaseomyces glabratus, ATCC90030, read-out: MIC
Description: as §1, §2, §3, §4, §5, §6, §7

MIC | Compound
> 1000 µg/mL | COc1ccc(/C=N/NC(=O)c2ccc(O)cc2O)c(Br)c1O [Compound 15, N-[(2-bromo-3-hydroxy-4-methoxyphenyl)methylidene]-2,4-dihydroxybenzohydrazide]

Test system: not given
Assay: not given
Conditions: not given

melting point | Compound
244 °C | COc1ccc(/C=N/NC(=O)c2ccc(O)cc2O)c(Br)c1O [Compound 15, N-[(2-bromo-3-hydroxy-4-methoxyphenyl)methylidene]-2,4-dihydroxybenzohydrazide]

Test system: Bordetella bronchiseptica ATCC 4617
Assay: Broth microdilution MIC/MBC
Type: cell-based
Conditions: ATCC4617
Description: as §1, §2, §3, §4, §5, §6, §7

MIC | Compound
> 1000 µg/mL | COc1ccc(/C=N/NC(=O)c2ccc(O)cc2O)c(Br)c1O [Compound 15, N-[(2-bromo-3-hydroxy-4-methoxyphenyl)methylidene]-2,4-dihydroxybenzohydrazide]

Test system: Escherichia coli ATCC 25922
Assay: Broth microdilution MIC/MBC
Type: cell-based
Conditions: ATCC25922
Description: as §1, §2, §3, §4, §5, §6, §7

MIC | Compound
> 1000 µg/mL | COc1ccc(/C=N/NC(=O)c2ccc(O)cc2O)c(Br)c1O [Compound 15, N-[(2-bromo-3-hydroxy-4-methoxyphenyl)methylidene]-2,4-dihydroxybenzohydrazide]

Test system: Enterococcus faecalis ATCC 29212
Assay: Broth microdilution MIC/MBC
Type: cell-based
Conditions: ATCC29212, read-out: MIC
Description: as §1, §2, §3, §4, §5, §6, §7

MIC | Compound
> 1000 µg/mL | COc1ccc(/C=N/NC(=O)c2ccc(O)cc2O)c(Br)c1O [Compound 15, N-[(2-bromo-3-hydroxy-4-methoxyphenyl)methylidene]-2,4-dihydroxybenzohydrazide]

Test system: Bacillus cereus ATCC 10876
Assay: Broth microdilution MIC/MBC
Type: cell-based
Conditions: ATCC10876, read-out: MIC
Description: as §1, §2, §3, §4, §5, §6, §7

MIC | Compound
> 1000 µg/mL | COc1ccc(/C=N/NC(=O)c2ccc(O)cc2O)c(Br)c1O [Compound 15, N-[(2-bromo-3-hydroxy-4-methoxyphenyl)methylidene]-2,4-dihydroxybenzohydrazide]

Test system: Klebsiella pneumoniae ATCC 13883
Assay: Broth microdilution MIC/MBC
Type: cell-based
Conditions: ATCC13883
Description: as §1, §2, §3, §4, §5, §6, §7

MIC | Compound
> 1000 µg/mL | COc1ccc(/C=N/NC(=O)c2ccc(O)cc2O)c(Br)c1O [Compound 15, N-[(2-bromo-3-hydroxy-4-methoxyphenyl)methylidene]-2,4-dihydroxybenzohydrazide]

Test system: Staphylococcus aureus ATCC 43300
Assay: Broth microdilution MIC/MBC
Type: cell-based
Conditions: Staphylococcus aureus ATCC 43300 (MRSA)
Description: as §1
as §2, with “antimicrobials.” for “antimicrobials. All the used microbial cultures were first subcultured on nu-trient agar or Sabouraud agar at 35°C for 18-24 h or 30°C for 24-48 h for bacteria and fungi,”
(§8) Samples containing examined compounds were dissolved in dimethyl sulfoxide (DMSO). […]
as §6, §7

MIC | Compound
> 1000 µg/mL | COc1ccc(/C=N/NC(=O)c2ccc(O)cc2O)c(Br)c1O [Compound 15, N-[(2-bromo-3-hydroxy-4-methoxyphenyl)methylidene]-2,4-dihydroxybenzohydrazide]

Test system: Micrococcus luteus ATCC 10240
Assay: Broth microdilution MIC/MBC
Type: cell-based
Conditions: not given
Description: as §1
as §2, with “antimicrobials.” for “antimicrobials. All the used microbial cultures were first subcultured on nu-trient agar or Sabouraud agar at 35°C for 18-24 h or 30°C for 24-48 h for bacteria and fungi,”
as §8, §6, §7

MBC/MIC | Compound
> 2 | COc1ccc(/C=N/NC(=O)c2ccc(O)cc2O)c(Br)c1O [Compound 15, N-[(2-bromo-3-hydroxy-4-methoxyphenyl)methylidene]-2,4-dihydroxybenzohydrazide]

Same assay, conditions: ATCC10240

Compound | MBC
COc1ccc(/C=N/NC(=O)c2ccc(O)cc2O)c(Br)c1O [Compound 15, N-[(2-bromo-3-hydroxy-4-methoxyphenyl)methylidene]-2,4-dihydroxybenzohydrazide] | > 1000 µg/mL

Same assay, conditions: ATCC10240, read-out: MIC

MIC | Compound
500 µg/mL (≈ 1310 µM) | COc1ccc(/C=N/NC(=O)c2ccc(O)cc2O)c(Br)c1O [Compound 15, N-[(2-bromo-3-hydroxy-4-methoxyphenyl)methylidene]-2,4-dihydroxybenzohydrazide]

Test system: Salmonella typhimurium ATCC 14028
Assay: Broth microdilution MIC/MBC
Type: cell-based
Conditions: Salmonella enterica
Description: as §1
as §2, with “antimicrobials.” for “antimicrobials. All the used microbial cultures were first subcultured on nu-trient agar or Sabouraud agar at 35°C for 18-24 h or 30°C for 24-48 h for bacteria and fungi,”
as §8, §6, §7

MIC | Compound
> 1000 µg/mL | COc1ccc(/C=N/NC(=O)c2ccc(O)cc2O)c(Br)c1O [Compound 15, N-[(2-bromo-3-hydroxy-4-methoxyphenyl)methylidene]-2,4-dihydroxybenzohydrazide]

Test system: Staphylococcus epidermidis ATCC 12228
Assay: Broth microdilution MIC/MBC
Type: cell-based
Conditions: not given
Description: as §1
as §2, with “antimicrobials.” for “antimicrobials. All the used microbial cultures were first subcultured on nu-trient agar or Sabouraud agar at 35°C for 18-24 h or 30°C for 24-48 h for bacteria and fungi,”
as §8, §6, §7

MBC/MIC | Compound
> 1 | COc1ccc(/C=N/NC(=O)c2ccc(O)cc2O)c(Br)c1O [Compound 15, N-[(2-bromo-3-hydroxy-4-methoxyphenyl)methylidene]-2,4-dihydroxybenzohydrazide]

Same assay, conditions: ATCC12228

Compound | MBC
COc1ccc(/C=N/NC(=O)c2ccc(O)cc2O)c(Br)c1O [Compound 15, N-[(2-bromo-3-hydroxy-4-methoxyphenyl)methylidene]-2,4-dihydroxybenzohydrazide] | > 1000 µg/mL

Same assay, conditions: ATCC12228, read-out: MIC

MIC | Compound
1000 µg/mL (≈ 2620 µM) | COc1ccc(/C=N/NC(=O)c2ccc(O)cc2O)c(Br)c1O [Compound 15, N-[(2-bromo-3-hydroxy-4-methoxyphenyl)methylidene]-2,4-dihydroxybenzohydrazide]

Test system: Pseudomonas aeruginosa ATCC 9027
Assay: Broth microdilution MIC/MBC
Type: cell-based
Conditions: ATCC9027
Description: as §1
as §2, with “antimicrobials.” for “antimicrobials. All the used microbial cultures were first subcultured on nu-trient agar or Sabouraud agar at 35°C for 18-24 h or 30°C for 24-48 h for bacteria and fungi,”
as §8, §6, §7

MIC | Compound
> 1000 µg/mL | COc1ccc(/C=N/NC(=O)c2ccc(O)cc2O)c(Br)c1O [Compound 15, N-[(2-bromo-3-hydroxy-4-methoxyphenyl)methylidene]-2,4-dihydroxybenzohydrazide]

Test system: Proteus mirabilis ATCC 12453
Assay: Broth microdilution MIC/MBC
Type: cell-based
Conditions: ATCC12453
Description: as §1
as §2, with “antimicrobials.” for “antimicrobials. All the used microbial cultures were first subcultured on nu-trient agar or Sabouraud agar at 35°C for 18-24 h or 30°C for 24-48 h for bacteria and fungi,”
as §8, §6, §7

MIC | Compound
> 1000 µg/mL | COc1ccc(/C=N/NC(=O)c2ccc(O)cc2O)c(Br)c1O [Compound 15, N-[(2-bromo-3-hydroxy-4-methoxyphenyl)methylidene]-2,4-dihydroxybenzohydrazide]

Test system: Staphylococcus aureus ATCC 29213
Assay: Broth microdilution MIC/MBC
Type: cell-based
Conditions: ATCC29213
Description: as §1
as §2, with “antimicrobials.” for “antimicrobials. All the used microbial cultures were first subcultured on nu-trient agar or Sabouraud agar at 35°C for 18-24 h or 30°C for 24-48 h for bacteria and fungi,”
as §8, §6, §7

MIC | Compound
> 1000 µg/mL | COc1ccc(/C=N/NC(=O)c2ccc(O)cc2O)c(Br)c1O [Compound 15, N-[(2-bromo-3-hydroxy-4-methoxyphenyl)methylidene]-2,4-dihydroxybenzohydrazide]

Test system: Bacillus subtilis ATCC 6633
Assay: Broth microdilution MIC/MBC
Type: cell-based
Conditions: ATCC6633, read-out: MIC
Description: Detailed procedures are presented in the Supplementary Materials. […]
as §1, §2, §3, §4, §5, §6, §7

MIC | Compound
> 1000 µg/mL | COc1ccc(/C=N/NC(=O)c2ccc(O)cc2O)c(Br)c1O [Compound 15, N-[(2-bromo-3-hydroxy-4-methoxyphenyl)methylidene]-2,4-dihydroxybenzohydrazide]
